A word on the EC50: it is the concentration giving half of the maximal effect. Usually CC50 stands for the concentration that lowers cell viability or growth by half. Low values mean harm at low concentration, high ones better tolerance by the cells.

In series [1] the test system is HCV reporter replicon. The series can be described thus: HCV reporter replicon assay, antiviral activity (dual luciferase). The class given is cell-based. The note with it: for EC50: Hepatitis C virus. As for the experimental part:
(§1) All compounds were tested in an HCV reporter replicon assay. Briefly, a reporter replicon containing Huh-7 hepatoma cells was grown in DMEM (Invitrogen, Carlsbad, Calif.) and seeded in 96-well black wall, clear-bottom plates (Costar®; Coming Incorporated). Cells were allowed to settle at 37° C., 5% CO2 for 30 minutes. The compounds were serially diluted in separate 96 well plates and […] of each concentration was added to the appropriate well in triplicate. The plates are incubated at 37° C., 5% CO2 for three days.
(§2) Following three days of incubation, the media was aspirated from the wells and cells are washed with 100 μl PBS. After removing the PBS, 20 μl of 1× Passive Lysis Buffer (Promega Corp., Madison, Wis.) is added to each well, and the cells are allowed to lyse at room temperature for 15 minutes. Antiviral activity and cytotoxicity is measured following lysis using the dual luciferase kit (Promega Corp., Madison, Wis.). The percent antiviral inhibition and percent cytotoxicity for each concentration is calculated after subtracting the background values of media only wells from wells containing cells, and subtratcting 100 from the percent ratio of the value in the compound well to the cell only control well.
(Replicon systems follow genome replication, usually without infectious particles.)

Series [2] can be described thus: Solubility (Sol.) reported with the replicon assay.
A short description of series [3]: in vitro. Format: cell-based. The note with it: human, three days incubation. As for the experimental part:
as §1, §2

The mark [4] stands for this setting: Huh-7, 72 h, 7-pt Assay, replicon-containing Huh-7 cells, three days incubation, read-out: EC50.
Setting [5] is: Huh-7, 72 h, Extended 8-pt Assay, replicon-containing Huh-7 cells, three days incubation, read-out: EC50.
[6] abbreviates: 7-pt Assay, value marked (exp), read-out: EC50 (exp).

Where two headings read alike, the source gives them in different places.

For the compound `CC1(C)SCCN(S(=O)(=O)c2ccc(Oc3ccncc3)cc2)[C@H]1C(=O)NO` [Example 12, (3S)—N-hydroxy-2,2-dimethyl-4-{[4-(pyridin-4-yloxy)phenyl]sulfonyl}thiomorpholine-3-carboxamide], the CC50/EC50 in series [1] (7-pt Assay) is 880. Further, the values for the EC50 in series [1] (setting [4]) and in series [1] (setting [5]) were 0.36 µM and 0.26 µM, respectively. Moreover, the Sol. in series [2] (7-pt Assay) is greater than 320 µM; in series [2] (7-pt Assay, unit not given) it was 320; in series [2] (Extended 8-pt Assay), greater than 320 µM. For the same compound, the CC50 at 3 days in series [3] (7-pt Assay) is 320 µM; in series [3] (Extended 8-pt Assay), greater than 320 µM.
The compound `O=C(NO)[C@@H]1CCCC[C@@H]1SCCc1ccccc1` [Example 3] gave a CC50/EC50 in series [1] (7-pt Assay) of 130. The EC50 in series [1] (setting [4]) was 2.5 µM; in series [1] (setting [5]), 1.9 µM. For the same compound, the Sol. was greater than 320 µM in series [2] (7-pt Assay); 320 in series [2] (7-pt Assay, unit not given); greater than 320 µM in series [2] (Extended 8-pt Assay). Also, the CC50 at 3 days was no less than 320 µM in series [3] (7-pt Assay) and 211 µM in series [3] (Extended 8-pt Assay).
Consider `COC(=O)c1ccc(NC(=O)[C@H](CC(C)C)NC(=O)[C@@H](CC(=O)NO)c2ccccc2)cc1` [Example 8, methyl 4-({N-[(2S)-4-(hydroxyamino)-4-oxo-2-phenylbutanoyl]-L-leucyl}amino)benzoate], for which the CC50/EC50 in series [1] (7-pt Assay) turned out to be 218. The EC50 was determined as 1.5 µM in series [1] (setting [4]) and 1.2 µM in series [1] (setting [5]). The Sol. in series [2] (7-pt Assay) was less than 100 µM; in series [2] (7-pt Assay, unit not given) it was 32; in series [2] (Extended 8-pt Assay) it was less than 320 µM. Also, the CC50 at 3 days in series [3] (7-pt Assay) and in series [3] (Extended 8-pt Assay) was greater than 320 µM in each case.
As to `CS(=O)(=O)N1CCN(S(=O)(=O)c2ccc(Oc3ccc(F)cc3)cc2)[C@@H](C(=O)NO)C1` [Example 11, (2R)-1-{[4-(4-fluorophenoxy)phenyl]sulfonyl}-N-hydroxy-4-(methylsulfonyl)piperazine-2-carboxamide], the CC50/EC50 in series [1] (7-pt Assay) was determined as 444. Moreover, the EC50 in series [1] (setting [6]) amounted to 0.027 µM; in series [1] (setting [5]) it was 0.049 µM. Also, the Sol. was greater than 320 µM in series [2] (7-pt Assay); 320 in series [2] (7-pt Assay, unit not given); greater than 320 µM in series [2] (Extended 8-pt Assay). The CC50 at 3 days is 12 µM in series [3] (7-pt Assay) and 15 µM in series [3] (Extended 8-pt Assay).
In series [1] (7-pt Assay), `O=C(NO)C1=C(SCCc2ccc(-c3ccccc3)cc2)CCCC1` [Example 1, 2-(2-Biphenyl-4-yl-ethylsulfanyl)-cyclohex-1-ene-carboxylic Acid Hydroxyamide] showed a CC50/EC50 of 15. Besides, the concentration giving a half-maximal response (EC50) amounted to 2.1 µM in series [1] (setting [4]) and 1.6 µM in series [1] (setting [5]). In addition, the Sol. is less than 320 µM in series [2] (7-pt Assay); 100 in series [2] (7-pt Assay, unit not given); greater than 320 µM in series [2] (Extended 8-pt Assay). Further, the results for the CC50 at 3 days in series [3] (7-pt Assay) and in series [3] (Extended 8-pt Assay) were 32 µM and 31 µM, respectively.
On to `CC(C)(C)OC(=O)N1CCN(S(=O)(=O)c2ccc(Oc3ccccn3)cc2)[C@@H](C(=O)NO)C1` [Example 10, tert-butyl (3R)-3-[(hydroxyamino)carbonyl]-4-{[4-(pyridin-2-yloxy)phenyl]sulfonyl}piperazine-1-carboxylate], for which the CC50/EC50 in series [1] (7-pt Assay) was 1937. The EC50 in series [1] (setting [6]) amounted to 0.15 µM; in series [1] (setting [5]) it was 0.19 µM. Moreover, the Sol. was greater than 320 µM in series [2] (7-pt Assay); 320 in series [2] (7-pt Assay, unit not given); greater than 320 µM in series [2] (Extended 8-pt Assay). In addition, the CC50 at 3 days in series [3] (7-pt Assay) is 294 µM; in series [3] (Extended 8-pt Assay) it was 224 µM.
Take `Cc1cc(CSC(C)(C)[C@@H](NS(=O)(=O)c2ccc(Oc3ccc(Br)cc3)cc2)C(=O)NO)no1` [Example 14, N^2-{[4-(4-bromophenoxy)phenyl]sulfonyl}-N^1-hydroxy-3{[(5-methylisoxazol-3-yl)methyl]thio}-D-valinamide]: the CC50/EC50 in series [1] (7-pt Assay) came to 49. Further, the EC50 in series [1] (setting [4]) amounted to 1.57 µM; in series [1] (setting [5]) it was 1.9 µM. In addition, the Sol. was greater than 320 µM in series [2] (7-pt Assay); 320 in series [2] (7-pt Assay, unit not given); less than 320 µM in series [2] (Extended 8-pt Assay). Further, the cytotoxic concentration (CC50) at 3 days stood at 78 µM in series [3] (7-pt Assay) and 41 µM in series [3] (Extended 8-pt Assay).
`O=C(NO)[C@H]1CCCC[C@@H]1SCCc1ccc(-c2ccccc2)cc1` (relative stereo) [Example 6, trans-2-(Biphenyl-4-yl-ethylsulfanyl)cyclohexanecarboxylic Acid Hydroxyamide]: the CC50/EC50 in series [1] (7-pt Assay) was found to be 3265. Further, the figures for the EC50 in series [1] (setting [6]) and in series [1] (setting [5]) were 0.034 µM and 0.05 µM, respectively. The Sol. was greater than 320 µM in series [2] (7-pt Assay); 320 in series [2] (7-pt Assay, unit not given); greater than 320 µM in series [2] (Extended 8-pt Assay). Further, the figures for the CC50 at 3 days in series [3] (7-pt Assay) and in series [3] (Extended 8-pt Assay) were 111 µM and 99 µM, respectively.
The compound `O=C(NO)[C@@H]1CCCC[C@H]1S(=O)(=O)CCc1ccccc1` [Example 5, trans-2-Phenylethanesulfonyl-cyclohexanecarboxylic Acid Hydroxyamide] displayed a CC50/EC50 in series [1] (7-pt Assay) of 1333. The EC50 in series [1] (setting [6]) came to 0.24 µM; in series [1] (setting [5]), 0.31 µM. For the same compound, the Sol. in series [2] (7-pt Assay) was greater than 320 µM; in series [2] (7-pt Assay, unit not given) it was 320; in series [2] (Extended 8-pt Assay) it was greater than 320 µM. Besides, the CC50 at 3 days in series [3] (7-pt Assay) and in series [3] (Extended 8-pt Assay) was greater than 320 µM throughout.
In series [1] (7-pt Assay), `O=C(NO)C1CCCCN1S(=O)(=O)c1ccc(Sc2ccncc2)cc1` (stereo not shown) [Example 13, N-hydroxy-1{[4-(pyridin-4-ylthio)phenyl]sulfonyl}piperidine-2-carboxamide] returned a CC50/EC50 of 667. Also, the EC50 in series [1] (setting [4]) came out at 0.44 µM; in series [1] (setting [5]), 0.35 µM. For the same compound, the Sol. in series [2] (7-pt Assay) is greater than 320 µM; in series [2] (7-pt Assay, unit not given), 320; in series [2] (Extended 8-pt Assay), greater than 320 µM. In addition, the CC50 at 3 days was found to be 293 µM in series [3] (7-pt Assay) and 211 µM in series [3] (Extended 8-pt Assay).
Compound `CC(=O)N1CCN(S(=O)(=O)c2ccc(Oc3ccccc3)cc2)C(C(=O)NO)C1` (stereo not shown) [Example 9, 4-acetyl-N-hydroxy-1-[(4-phenoxyphenyl)sulfonyl]piperazine-2-carboxamide] showed a CC50/EC50 in series [1] (7-pt Assay) of 835. The EC50 came out at 0.097 µM in series [1] (setting [6]) and 0.018 µM in series [1] (setting [5]). The Sol. is greater than 320 µM in series [2] (7-pt Assay); 320 in series [2] (7-pt Assay, unit not given); greater than 320 µM in series [2] (Extended 8-pt Assay). Also, the CC50 at 3 days in series [3] (7-pt Assay) amounted to 81 µM; in series [3] (Extended 8-pt Assay) it was 79 µM.

The record behind these values is patent US20040229817A1, “Inhibitors of Hepatitis C virus, compositions and treatments using the same” (priority 2003, published 2004).
